# Data published in US11214538B2, “Farnesoid X receptor agonists and uses thereof” (Metacrine, Inc., priority 2015, dated 2022).
# Legend:
# hFXR [1] = biological target: T1, hFXR (Homo sapiens, UniProt Q96RI1); assay: In Vitro FXR Assay (TK), luciferase reporter in transfected CV-1 cells; type: cell-based; details: CV-1 cells transfected with hFXR, hRXR, TK-ECRE-luc; 18 hrs incubation; luminescence; compounds with a maximum efficacy of <25% of the Fexaramine control classified as '+'
# T1 construct: expressed in transfected cells; host or cells: CV-1 cells
# T1 sequence (Q96RI1 1-486): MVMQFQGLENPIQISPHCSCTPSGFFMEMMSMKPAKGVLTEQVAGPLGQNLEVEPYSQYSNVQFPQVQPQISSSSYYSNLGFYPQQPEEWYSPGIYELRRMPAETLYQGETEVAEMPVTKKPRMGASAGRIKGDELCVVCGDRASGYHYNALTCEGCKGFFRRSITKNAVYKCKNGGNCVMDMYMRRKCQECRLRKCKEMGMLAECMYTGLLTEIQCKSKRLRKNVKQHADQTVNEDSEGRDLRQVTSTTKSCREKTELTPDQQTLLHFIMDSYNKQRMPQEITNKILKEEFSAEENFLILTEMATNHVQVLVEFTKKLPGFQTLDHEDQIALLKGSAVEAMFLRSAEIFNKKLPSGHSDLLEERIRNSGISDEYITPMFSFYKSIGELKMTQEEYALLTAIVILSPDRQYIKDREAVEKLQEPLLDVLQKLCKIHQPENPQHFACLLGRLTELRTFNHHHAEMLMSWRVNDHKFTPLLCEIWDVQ
# T1 sequence (P19793 1-462 partner): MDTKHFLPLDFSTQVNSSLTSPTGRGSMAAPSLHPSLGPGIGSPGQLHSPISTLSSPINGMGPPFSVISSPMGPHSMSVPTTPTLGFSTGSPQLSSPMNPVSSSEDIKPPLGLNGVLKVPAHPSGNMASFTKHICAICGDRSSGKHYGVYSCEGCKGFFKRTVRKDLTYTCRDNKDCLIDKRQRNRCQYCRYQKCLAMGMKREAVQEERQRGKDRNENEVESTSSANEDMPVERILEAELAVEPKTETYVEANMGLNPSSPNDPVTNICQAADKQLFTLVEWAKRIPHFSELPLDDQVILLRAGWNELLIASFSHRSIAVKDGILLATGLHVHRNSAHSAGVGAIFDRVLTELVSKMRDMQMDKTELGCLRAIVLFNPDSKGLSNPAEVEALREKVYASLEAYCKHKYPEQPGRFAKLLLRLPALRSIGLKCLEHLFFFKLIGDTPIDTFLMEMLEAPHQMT
# Procedure: Example B-2: In Vitro FXR Assay (TK)
# CV-1 cells were seeded at a density of 2,000,000 cells in a T175 flask with DMEM+10% charcoal double-stripped FBS and incubated at 37° C. in 5% CO2 for 18 h (O/N).
# After 18 h of incubation, the medium in the T175 flask was changed with fresh DMEM+10% charcoal super-stripped serum. In a polypropylene tube, 2500 μL OptiMEM (Life Technologies, Cat #31985-062) was combined with expression plasmids for hFXR, hRXR, TK-ECRE-luc and pCMX-YFP. The tube was then briefly vortexed and incubated at room temperature for 5 minutes. Transfection reagent (X-tremeGENE HP from Roche, Cat #06 366 236 001) was added to the OptiMEM/plasmid mixture vortexed and incubated at room temperature for 20 minutes. Following incubation, the transfection reagent/DNA mixture complex was added to cells in the T175 flask and the cells were incubated at 37° C. in 5% CO2 for 18 h (O/N).
# Compounds were serially diluted in DMSO and added to transfected CV-1 cells. The cells were then incubated for 18 hrs. The next day cells were lysed and examined for luminescence.
# hFXR [2] = biological target: T1, hFXR; assay: In Vitro FXR Assay (PGL3), luciferase reporter in transfected CV-1 cells; type: cell-based; details: CV-1 cells transfected with hFXR, hRXR, PGL3-ECRE*6-luc; 18 hrs incubation; luminescence
# Procedure: Example B-1: In Vitro FXR Assay (PGL3)
# CV-1 cells were seeded at a density of 2,000,000 cells in a T175 flask with DMEM+10% charcoal double-stripped FBS and incubated at 37° C. in a 5% CO2 for 18 h (O/N).
# After 18 h of incubation, the medium in the T175 flask was changed with fresh DMEM+10% charcoal super-stripped serum.
# To prepare the transfection reaction mixture, the transfection reagent (X-tremeGENE HP from Roche, Cat #06 366 236 001) was added in to a 1.5 mL microcentrifuge tube labelled “A” at a ratio of 1:3 (DNA in g: transfection reagent in μL). OptiMEM medium (Life Technologies, Cat #31985-062) was added accordingly to provide a total volume of 1 mL. The transfection reaction mixture was then briefly vortexed and incubated at room temperature for 5 minutes.
# In a separate 1.5 mL microcentrifuge tube labelled “B”, 100 μL OptiMEM and plasmids XPD90Gal pCMXhFXRfl, pCMXhRXRfl+PGL3-ECRE*6-luc+CMX-YFP in the ratio 2 g: 2 g:18 g:3 g were added. This microcentrifuge tube “B” was then briefly vortexed and incubated at room temperature for 5 minutes.
# The total volume in tube labelled “A” was then transferred in to tube labelled “B.” The mixture was then briefly vortexed and the transfection:DNA complex was then incubated for about 15-20 minutes at room temperature.
# Following incubation, the transfection reagent/DNA mixture complex was then added to cells in the T175 flask and the cells were incubated at […] (O/N) at 37° C. in 5% CO2.
# In a 96 well plate, a half logarithmic serial dilution was prepared. OptiMEM was used as the diluent. Using any of one of the compounds described herein, a compound stock solution of 10 mM was prepared. An initial 1:100 dilution was made into the first well for a final concentration of 100 μM. The final concentrations in the 96-well plate was prepared by using a multichannel pipette to transfer 5 μL of the diluted compound to 384-well plate in quadruplicate.
# Cells in T175 flask were trypsinized and cells were resuspending in 40 mL phenol red free DMEM+10% charcoal super-stripped FBS. Typically, one T175 flask was sufficient to seed two 384 well plates. CV-1 cells were seeded at 45 μL cell suspension/well using a multichannel pipet or a 384 multidrop dispenser. The cells were then incubated for 18 hrs, overnight.
# After removing the plates from the incubator, the medium was flicked out of plate and 384 well plate was turned upside down onto paper towel. The remaining medium was gently tapped out. 15 μL lysis buffer was then added to each well using a multichannel pipet or a 384 well multi-drop dispenser. After incubation for 10 minutes at room temperature on shaker, 30 μL Luciferase buffer was added to each well. Luminescence counts were taken immediately using the Perkin Elmer Envision.
# The ability of the compounds disclosed herein to […] FXR activity was quantified and the respective EC50 value was determined. Fex=fexaramine.
EC50 (hFXR [1]),Cmpd/Fex (ratio of the EC50 for the test compound relative to the EC50 of the Fexaramine control) (hFXR [2]),SMILES
≤ 3 µM,+++ (‘+++’ means Cmpd/Fex <10),"CN(C)c1ccc(-c2ccc(CN(C(=O)C3CCCCC3)c3cccc(/C=C/c4ncco4)c3)cc2)cc1 [Compound 14, (E)-N-((4′-(Dimethylamino)-[1,1′-biphenyl]-4-yl)methyl)-N-(3-(2-(oxazol-2-yl)vinyl)phenyl)cyclohexanecarboxamide]"
≤ 3 µM,+ (‘+’ means Cmpd/Fex >100),"O=C(C1CCCCC1)N(Cc1ccc(-c2ccc(F)cc2)cc1)c1cccc(-c2ccccc2)c1 [Compound 15, N-([1,1′-Biphenyl]-3-yl)-N-((4′-fluoro-[1,1′-biphenyl]-4-yl)methyl)cyclohexanecarboxamide]"
3 to 10 µM,++ (‘++’ means Cmpd/Fex >10 & <100),"C/C=C/c1cccc(N(Cc2ccc(-c3ccc(N(C)C)cc3)cc2)C(=O)C2CCCCC2)c1 [Compound 16, (E)-N-((4′-(Dimethylamino)-[1,1′-biphenyl]-4-yl)methyl)-N-(3-(prop-1-en-1-yl)phenyl)cyclohexanecarboxamide]"
3 to 10 µM,+ (‘+’ means Cmpd/Fex >100),"CN(C)c1ccc(-c2ccc(CN(C(=O)C3CCCCC3)c3cccc(-c4ccccc4)c3)cc2)cc1 [Compound 18, N-([1,1′-Biphenyl]-3-yl)-N-((4′-(dimethylamino)-[1,1′-biphenyl]-4-yl)methyl)cyclohexanecarboxamide]"
